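Abbreviation: GI50, concentration required for 50% inhibition of growth. At the TGI there is no net growth.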
Columns and labels:
Test in all cases: NCI anticancer screen, dose series, 384-well format
MDA-MB-468 breast = test system: MDA-MB-468 breast
MDA-MB-231 breast = test system: MDA-MB-231 breast
OVCAR-8 ovarian = test system: OVCAR-8 ovarian
MDA-MB-435 melanoma = test system: MDA-MB-435 melanoma
SF-295 CNS = test system: SF-295 CNS
ACHN renal = test system: ACHN renal
OVCAR-4 ovarian = test system: OVCAR-4 ovarian
SK-MEL-5 melanoma = test system: SK-MEL-5 melanoma
NCI-H23 lung = test system: NCI-H23 lung
HCT-116 colon = test system: HCT-116 colon
HCC-2998 colon = test system: HCC-2998 colon
NCI-H460 NSCLC = test system: NCI-H460 NSCLC
UO-31 renal = test system: UO-31 renal
HOP-92 NSCLC = test system: HOP-92 NSCLC
SF-268 CNS = test system: SF-268 CNS
CCRF-CEM leukemia = test system: CCRF-CEM leukemia
A498 renal = test system: A498 renal
TK-10 renal = test system: TK-10 renal
UACC-257 melanoma = test system: UACC-257 melanoma
HS 578T breast = test system: HS 578T breast
MCF7 breast = test system: MCF7 breast
SF-539 CNS = test system: SF-539 CNS
786-0 renal = test system: 786-0 renal
NCI/ADR-RES ovarian = test system: NCI/ADR-RES ovarian
BT-549 breast = test system: BT-549 breast
COLO 205 colon = test system: COLO 205 colon
SK-MEL-28 melanoma = test system: SK-MEL-28 melanoma
NCI-H226 lung = test system: NCI-H226 lung
K-562 leukemia = test system: K-562 leukemia
OVCAR-3 ovarian = test system: OVCAR-3 ovarian
SN12C renal = test system: SN12C renal
HL-60(TB) leukemia = test system: HL-60(TB) leukemia
RPMI-8226 leukemia = test system: RPMI-8226 leukemia
M14 melanoma = test system: M14 melanoma
HOP-62 NSCLC = test system: HOP-62 NSCLC
NCI-H322M lung = test system: NCI-H322M lung
SW-620 colon = test system: SW-620 colon
IGROV1 ovarian = test system: IGROV1 ovarian
OVCAR-5 ovarian = test system: OVCAR-5 ovarian
U251 glioblastoma = test system: U251 glioblastoma
SNB-19 CNS = test system: SNB-19 CNS
T-47D breast = test system: T-47D breast
MOLT-4 leukemia = test system: MOLT-4 leukemia
SNB-75 CNS = test system: SNB-75 CNS
HCT-15 colon = test system: HCT-15 colon
MALME-3M melanoma = test system: MALME-3M melanoma
KM12 colon = test system: KM12 colon
RXF 393 renal = test system: RXF 393 renal
EKVX NSCLC = test system: EKVX NSCLC
DU-145 prostate = test system: DU-145 prostate
LOX IMVI melanoma = test system: LOX IMVI melanoma
PC-3 prostate = test system: PC-3 prostate
CAKI-1 renal = test system: CAKI-1 renal
UACC-62 melanoma = test system: UACC-62 melanoma
NCI-H522 lung = test system: NCI-H522 lung
A549 NSCLC = test system: A549 NSCLC
SK-OV-3 ovarian = test system: SK-OV-3 ovarian
HT29 colon = test system: HT29 colon

Question: For `CN[C@@H](C)C(=O)N[C@H](C(=O)N1CCC[C@H]1c1nc(C(=O)c2ccc(F)cc2)cs1)C1CCCCC1`, which GI50 (MDA-MB-468 breast) is on record?
Answer: 1860 nM

Question: And the TGI (MDA-MB-468 breast)?
Answer: 13.8 µM

Question: And the GI50 (MDA-MB-231 breast)?
Answer: 597 nM

Question: What about the TGI (MDA-MB-231 breast) of the same compound?
Answer: 3.29 µM

Question: And the GI50 (OVCAR-8 ovarian)?
Answer: 10.2 µM

Question: And the TGI (OVCAR-8 ovarian)?
Answer: 24.1 µM

Question: And the GI50 (MDA-MB-435 melanoma)?
Answer: 14.1 µM

Question: And the TGI (MDA-MB-435 melanoma)?
Answer: 33.5 µM

Question: What about the GI50 (SF-295 CNS) of the same compound?
Answer: 16.4 µM

Question: And the TGI (SF-295 CNS)?
Answer: 30.9 µM

Question: And the GI50 (ACHN renal)?
Answer: 23.3 µM

Question: What about the TGI (ACHN renal) of the same compound?
Answer: 56.7 µM

Question: What about the GI50 (OVCAR-4 ovarian) of the same compound?
Answer: 44 nM

Question: And the TGI (OVCAR-4 ovarian)?
Answer: 510 nM

Question: What about the GI50 (SK-MEL-5 melanoma) of the same compound?
Answer: 10.2 µM

Question: What about the TGI (SK-MEL-5 melanoma) of the same compound?
Answer: 21.8 µM

Question: And the GI50 (NCI-H23 lung)?
Answer: 13.3 µM

Question: And the TGI (NCI-H23 lung)?
Answer: 35.2 µM

Question: What about the GI50 (HCT-116 colon) of the same compound?
Answer: 18 µM

Question: What about the TGI (HCT-116 colon) of the same compound?
Answer: 32.3 µM

Question: What about the GI50 (HCC-2998 colon) of the same compound?
Answer: 14.2 µM

Question: What about the TGI (HCC-2998 colon) of the same compound?
Answer: 27.4 µM

Question: And the GI50 (NCI-H460 NSCLC)?
Answer: 20.2 µM

Question: And the TGI (NCI-H460 NSCLC)?
Answer: 34.8 µM

Question: What about the GI50 (UO-31 renal) of the same compound?
Answer: 30 µM

Question: What about the TGI (UO-31 renal) of the same compound?
Answer: > 100 µM

Question: And the GI50 (HOP-92 NSCLC)?
Answer: 4.3 µM

Question: And the TGI (HOP-92 NSCLC)?
Answer: 19 µM

Question: What about the GI50 (SF-268 CNS) of the same compound?
Answer: 18.5 µM

Question: What about the TGI (SF-268 CNS) of the same compound?
Answer: 36.9 µM

Question: What about the GI50 (CCRF-CEM leukemia) of the same compound?
Answer: 7.4 µM

Question: And the TGI (CCRF-CEM leukemia)?
Answer: 20.7 µM

Question: What about the GI50 (A498 renal) of the same compound?
Answer: 15.5 µM

Question: What about the TGI (A498 renal) of the same compound?
Answer: 29.1 µM

Question: What about the GI50 (TK-10 renal) of the same compound?
Answer: 21.2 µM

Question: What about the TGI (TK-10 renal) of the same compound?
Answer: 53.3 µM

Question: What about the GI50 (UACC-257 melanoma) of the same compound?
Answer: 15.4 µM

Question: And the TGI (UACC-257 melanoma)?
Answer: 28.8 µM

Question: What about the GI50 (HS 578T breast) of the same compound?
Answer: 5.06 µM

Question: And the TGI (HS 578T breast)?
Answer: 20.8 µM

Question: What about the GI50 (MCF7 breast) of the same compound?
Answer: 11.7 µM

Question: What about the TGI (MCF7 breast) of the same compound?
Answer: 26.1 µM

Question: And the GI50 (SF-539 CNS)?
Answer: 17.5 µM

Question: What about the TGI (SF-539 CNS) of the same compound?
Answer: 31.3 µM

Question: And the GI50 ([…]-0 renal)?
Answer: 15.8 µM

Question: What about the TGI (786-0 renal) of the same compound?
Answer: 29.3 µM

Question: And the GI50 (NCI/ADR-RES ovarian)?
Answer: 17.1 µM

Question: What about the TGI (NCI/ADR-RES ovarian) of the same compound?
Answer: 34.9 µM

Question: And the GI50 (BT-549 breast)?
Answer: 12 µM

Question: What about the TGI (BT-549 breast) of the same compound?
Answer: 24.4 µM

Question: What about the GI50 (COLO 205 colon) of the same compound?
Answer: 17.1 µM

Question: And the TGI (COLO 205 colon)?
Answer: 32.5 µM

Question: What about the GI50 (SK-MEL-28 melanoma) of the same compound?
Answer: 16.4 µM

Question: And the TGI (SK-MEL-28 melanoma)?
Answer: 30 µM

Question: And the GI50 (NCI-H226 lung)?
Answer: 21.7 µM

Question: What about the TGI (NCI-H226 lung) of the same compound?
Answer: 60.5 µM

Question: And the GI50 (K-562 leukemia)?
Answer: 16.8 µM

Question: What about the TGI (K-562 leukemia) of the same compound?
Answer: 30.5 µM

Question: And the GI50 (OVCAR-3 ovarian)?
Answer: 11.4 µM

Question: What about the TGI (OVCAR-3 ovarian) of the same compound?
Answer: 25.2 µM

Question: What about the GI50 (SN12C renal) of the same compound?
Answer: 53.8 µM

Question: And the TGI (SN12C renal)?
Answer: > 100 µM

Question: What about the GI50 (HL-60(TB) leukemia) of the same compound?
Answer: 612 nM

Question: What about the TGI (HL-60(TB) leukemia) of the same compound?
Answer: 3000 nM

Question: What about the GI50 (RPMI-8226 leukemia) of the same compound?
Answer: 6.69 µM

Question: And the TGI (RPMI-8226 leukemia)?
Answer: 20 µM

Question: What about the GI50 (M14 melanoma) of the same compound?
Answer: 18.2 µM

Question: And the TGI (M14 melanoma)?
Answer: 32.2 µM

Question: And the GI50 (HOP-62 NSCLC)?
Answer: 3.25 µM

Question: What about the TGI (HOP-62 NSCLC) of the same compound?
Answer: 17.6 µM

Question: What about the GI50 (NCI-H322M lung) of the same compound?
Answer: 20.3 µM

Question: What about the TGI (NCI-H322M lung) of the same compound?
Answer: 51.4 µM

Question: And the GI50 (SW-620 colon)?
Answer: 23.9 µM

Question: What about the TGI (SW-620 colon) of the same compound?
Answer: 47.8 µM

Question: And the GI50 (IGROV1 ovarian)?
Answer: 21.2 µM

Question: And the TGI (IGROV1 ovarian)?
Answer: 39.5 µM

Question: And the GI50 (OVCAR-5 ovarian)?
Answer: 23.4 µM

Question: And the TGI (OVCAR-5 ovarian)?
Answer: 51 µM

Question: What about the GI50 (U251 glioblastoma) of the same compound?
Answer: 15.9 µM

Question: What about the TGI (U251 glioblastoma) of the same compound?
Answer: 29.7 µM

Question: What about the GI50 (SNB-19 CNS) of the same compound?
Answer: 31.8 µM

Question: And the TGI (SNB-19 CNS)?
Answer: > 100 µM

Question: What about the GI50 (T-47D breast) of the same compound?
Answer: 13.1 µM

Question: What about the TGI (T-47D breast) of the same compound?
Answer: 27.6 µM

Question: And the GI50 (MOLT-4 leukemia)?
Answer: 13.1 µM

Question: What about the TGI (MOLT-4 leukemia) of the same compound?
Answer: 25.7 µM

Question: And the GI50 (SNB-75 CNS)?
Answer: 10.1 µM

Question: And the TGI (SNB-75 CNS)?
Answer: 25.6 µM

Question: And the GI50 (HCT-15 colon)?
Answer: 20.3 µM

Question: What about the TGI (HCT-15 colon) of the same compound?
Answer: 42 µM

Question: What about the GI50 (MALME-3M melanoma) of the same compound?
Answer: 330 nM

Question: What about the TGI (MALME-3M melanoma) of the same compound?
Answer: 2990 nM

Question: What about the GI50 (KM12 colon) of the same compound?
Answer: 17.3 µM

Question: What about the TGI (KM12 colon) of the same compound?
Answer: 32.2 µM

Question: What about the GI50 (RXF 393 renal) of the same compound?
Answer: 409 nM

Question: What about the TGI (RXF 393 renal) of the same compound?
Answer: 11.1 µM

Question: What about the GI50 (EKVX NSCLC) of the same compound?
Answer: 18.7 µM

Question: What about the TGI (EKVX NSCLC) of the same compound?
Answer: 41.3 µM

Question: And the GI50 (DU-145 prostate)?
Answer: 17.9 µM

Question: What about the TGI (DU-145 prostate) of the same compound?
Answer: 39.3 µM

Question: What about the GI50 (LOX IMVI melanoma) of the same compound?
Answer: 16.2 µM

Question: What about the TGI (LOX IMVI melanoma) of the same compound?
Answer: 29.7 µM

Question: What about the GI50 (PC-3 prostate) of the same compound?
Answer: 19.5 µM

Question: What about the TGI (PC-3 prostate) of the same compound?
Answer: 38.7 µM

Question: And the GI50 (CAKI-1 renal)?
Answer: 25.5 µM

Question: And the TGI (CAKI-1 renal)?
Answer: 48.4 µM

Question: And the GI50 (UACC-62 melanoma)?
Answer: 18.7 µM

Question: What about the TGI (UACC-62 melanoma) of the same compound?
Answer: 34.1 µM

Question: And the GI50 (NCI-H522 lung)?
Answer: 6.47 µM

Question: What about the TGI (NCI-H522 lung) of the same compound?
Answer: 20.8 µM

Question: What about the GI50 (A549 NSCLC) of the same compound?
Answer: 26.8 µM

Question: What about the TGI (A549 NSCLC) of the same compound?
Answer: > 100 µM

Question: What about the GI50 (SK-OV-3 ovarian) of the same compound?
Answer: 69.2 nM

Question: And the TGI (SK-OV-3 ovarian)?
Answer: 1580 nM

Question: What about the GI50 (HT29 colon) of the same compound?
Answer: 17.1 µM

Question: And the TGI (HT29 colon)?
Answer: 31.1 µM
